Reference: EP0325279A1, “Dehydrocholecalciferol derivatives” (F. HOFFMANN-LA ROCHE AG, priority 1988, dated 1989)
Values joined by “and” are separate entries in the source; they are usually repeats but may differ in a detail not shown here. Identical values can stand only once.

Legend:
Type in all cases: cell-based
[1] = system: menschlicher promyelocytischer Tumorzellen HL-60; test: Differentiation-inducing (DI) effect on HL-60 cells; conditions: for EC50: Homo sapiens, concentration that causes 50% differentiation of the cells, read-out: ED50 (the source's name)
From the text: (§1) Zum Nachweis der Aktivität der Verbindungen der Formel I als Mittel zur Behandlung von neoplastischen Krankheiten wurden die antiproliferativen (AP) und die Differenzierung induzierenden Effekte (DI) der Verbindungen A bis F sowie die Anzahl menschlicher promyelocytischer Tumorzellen HL-60 ermittelt. In Tabelle 6 ist der AP Effekt als prozentuale Reduktion der Anzahl Zellen und als Konzentration ID₅₀, die die Zellenanzahl um 50% reduziert, angegeben. Der DI Effekt ist angegeben als Prozentsatz der differenzierten Zellen und als Konzentration ED₅₀ der Verbindungen, die eine 50%ige Differenzierung der Zellen bewirkt.

[2] = system: gezüchteten menschlichen Keratinocyten; test: Morphological differentiation of cultured human keratinocytes (cell counts by cell type)
[3] = system: menschlicher promyelocytischer Tumorzellen HL-60; test: Antiproliferative (AP) effect on HL-60 cells; conditions: for IC50: Homo sapiens, concentration that reduces the cell number by 50%, read-out: ID50 (the source's name)
From the text: as §1

[4] = system: menschlichen Keratinocyten; test: Number of human keratinocytes and cornified squamous cells formed in presence of compound
From the text: Die Aktivität der Verbindungen der Formel I als Mittel für die Behandlung von hyperproliferativen Hautkrankheiten kann auch durch Ermittlung der Anzahl von menschlichen Keratinocyten, von verhornten Plattenepithelzellen und von Plattenepithel-Karzinomzellenlinien (SCC-115), die sich in Gegenwart der besagten Verbindungen bilden.
Die Resultate sind in den Tabellen 4 und 5 angegeben: Tabelle 4

[5] = Konzentration 0.1 (head prints x10 M)
[6] = Konzentration 1 (head prints x10 M)
[7] = Konzentration 10 (head prints x10 M)
[8] = Konzentration 100 (head prints x10 M)
[9] = Konzentration 1000 (head prints x10 M)
[10] = Konzentration 0.01 (head prints x10 M)

EC50 [1] | IC50 [3] | SMILES | Differenzierte Zellen (%) [1, 5] | Differenzierte Zellen (%) [1, 6] | Differenzierte Zellen (%) [1, 7] | Differenzierte Zellen (%) [1, 8] | Anzahl Zellen (x10⁴): Basalzellen ([2]; Dosis 10⁻¹⁰ M) | Anzahl Zellen (x10⁴): Gesamtanzahl ([2]; Dosis 10⁻¹⁰ M) | Anzahl Zellen (x10⁴): Plattenepithelzellen ([2]; Dosis 10⁻¹⁰ M) | Anzahl Zellen (x10⁴): verhornte Plattenepithelzellen ([2]; Dosis 10⁻¹⁰ M) | Anzahl Zellen (x10⁴): Basalzellen ([2]; Dosis 10⁻⁶ M) | Anzahl Zellen (x10⁴): Gesamtanzahl ([2]; Dosis 10⁻⁶ M) | Anzahl Zellen (x10⁴): Plattenepithelzellen ([2]; Dosis 10⁻⁶ M) | Anzahl Zellen (x10⁴): Basalzellen ([2]; Dosis 10⁻⁸ M) | Anzahl Zellen (x10⁴): Gesamtanzahl ([2]; Dosis 10⁻⁸ M) | Anzahl Zellen (x10⁴): Plattenepithelzellen ([2]; Dosis 10⁻⁸ M) | % Reduktion der Anzahl Zellen [3, 5] | % Reduktion der Anzahl Zellen [3, 6] | % Reduktion der Anzahl Zellen [3, 7] | % Reduktion der Anzahl Zellen [3, 8] | other results
2000 nM | 1500 nM | C=C1CC[C@H](O)C/C1=C/C=C1\CCC[C@]2(C)C([C@H](C)C/C=C/C(C)(C)O)=CC[C@@H]12 [Verbindung D, 25-Hydroxy-16,23E-bisdehydrocholecalciferol] | 1% | 2% | 17% | 31% | 93±6 x10⁴ | 113±7 x10⁴ | 20±1 x10⁴ | 104±10 x10⁴ | 68±1 x10⁴ | 94±3 x10⁴ | 26±2 x10⁴ | 86±3 x10⁴ | 111±7 x10⁴ | 25±2 x10⁴ | 12% | 12% | 17% | 46% | Differenzierte Zellen (%) [1, 9]: 97%; Anzahl Zellen (x10⁴): verhornte Plattenepithelzellen ([2]; Dosis 10⁻⁶ M): 144±7 x10⁴; Anzahl Zellen (x10⁴): verhornte Plattenepithelzellen ([2]; Dosis 10⁻⁸ M): 128±5 x10⁴; % Reduktion der Anzahl Zellen [3, 9]: 95%
700 nM | 700 nM | C=C1CC[C@H](O)C/C1=C/C=C1\CCC[C@]2(C)C([C@H](C)CC#CC(C)(C)O)=CC[C@@H]12 [Verbindung F, 25-Hydroxy-16-dehydro-23-didehydrocholecalciferol] | 4% | 12% | 21% | 55% | 81±3 x10⁴ | 103±5 x10⁴ | 22±2 x10⁴ | 103±4 x10⁴ | 55±2 x10⁴ | 84±4 x10⁴ | 29±1 x10⁴ | 67±2 x10⁴ | 97±3 x10⁴ | 29±1 x10⁴ | 13% | 10% | 8% | 58% | Differenzierte Zellen (%) [1, 9]: 91%; Anzahl Zellen (x10⁴): verhornte Plattenepithelzellen ([2]; Dosis 10⁻⁶ M): 137±7 x10⁴; Anzahl Zellen (x10⁴): verhornte Plattenepithelzellen ([2]; Dosis 10⁻⁸ M): 121±6 x10⁴; % Reduktion der Anzahl Zellen [3, 9]: 95%
2 nM | 2 nM | C=C1/C(=C\C=C2/CCC[C@]3(C)C([C@H](C)CCCC(C)(C)O)=CC[C@@H]23)C[C@@H](O)C[C@@H]1O [Verbindung A, 1,25-Dihydroxy-16-dehydrocholecalciferol] | 16% | 92% | 97% | 98% | 115±7 x10⁴ | 132±8 x10⁴ | 17±1 x10⁴ | 27±2 x10⁴ | 71±5 x10⁴ | 101±7 x10⁴ | 30±2 x10⁴ | 106±8 x10⁴ | 128±10 x10⁴ | 22±2 x10⁴ | 33% | 84% | 85% | 85% | Anzahl Keratinocten (x10⁴) ([4]; Dosis 10⁻¹² M): 114.91±10.95 x10⁴; Anzahl verhornte Plattenepithelzellen (x10²) ([4]; Dosis 10⁻¹² M): 1662.2± 420.1 x10²; Anzahl Keratinocten (x10⁴) ([4]; Dosis 10⁻¹⁰ M): 130.37±24.32 x10⁴; Anzahl verhornte Plattenepithelzellen (x10²) ([4]; Dosis 10⁻¹⁰ M): 3973.8± 126.99 x10²; Anzahl Keratinocten (x10⁴) ([4]; Dosis 10⁻⁶ M): 109.22±15.87 x10⁴; Anzahl verhornte Plattenepithelzellen (x10²) ([4]; Dosis 10⁻⁶ M): 8323.5± 157.6 x10²; Anzahl Keratinocten (x10⁴) ([4]; Dosis 10⁻⁸ M): 120.67±16.87 x10⁴; Anzahl verhornte Plattenepithelzellen (x10²) ([4]; Dosis 10⁻⁸ M): 7235.2± 55.5 x10²; Differenzierte Zellen (%) [1, 10]: 3%; Anzahl Zellen (x10⁴): verhornte Plattenepithelzellen ([2]; Dosis 10⁻⁶ M): 39±2 x10⁴; Anzahl Zellen (x10⁴): verhornte Plattenepithelzellen ([2]; Dosis 10⁻⁸ M): 33±2 x10⁴; % Reduktion der Anzahl Zellen [3, 10]: 10%
3 nM | 3 nM | C=C1/C(=C\C=C2/CCC[C@]3(C)C([C@H](C)C/C=C/C(C)(C)O)=CC[C@@H]23)C[C@@H](O)C[C@@H]1O [Verbindung C, 1,25-Dihydroxy-16,23E-bisdehydrocholecalciferol] | 19% | 92% | 97% | 99% | 92±2 x10⁴ | 117±4 x10⁴ | 25±2 x10⁴ | 103±6 x10⁴ | 54±6 x10⁴ | 80±7 x10⁴ | 26±1 x10⁴ | 80±2 x10⁴ | 108±3 x10⁴ | 28±1 x10⁴ | 20% | 81% | 85% | 86% | Differenzierte Zellen (%) [1, 10]: 3%; Anzahl Zellen (x10⁴): verhornte Plattenepithelzellen ([2]; Dosis 10⁻⁶ M): 153±1 x10⁴; Anzahl Zellen (x10⁴): verhornte Plattenepithelzellen ([2]; Dosis 10⁻⁸ M): 128±3 x10⁴; % Reduktion der Anzahl Zellen [3, 10]: 18%
320 nM | 350 nM | C=C1CC[C@H](O)C/C1=C/C=C1\CCC[C@]2(C)C([C@H](C)CCCC(C)(C)O)=CC[C@@H]12 [Verbindung B, 25-Hydroxy-16-dehydrocholecalciferol] | 5% | 4% | 6% | 93% | 15±5 x10⁴ | 133±6 x10⁴ | 18±1 x10⁴ | 25±1 x10⁴ | 74±3 x10⁴ | 104±4 x10⁴ | 30±1 x10⁴ | 109±2 x10⁴ | 131±4 x10⁴ | 22±2 x10⁴ | 10% | 8% | 14% | 82% | Differenzierte Zellen (%) [1, 9]: 95%; Anzahl Zellen (x10⁴): verhornte Plattenepithelzellen ([2]; Dosis 10⁻⁶ M): 33±1 x10⁴; Anzahl Zellen (x10⁴): verhornte Plattenepithelzellen ([2]; Dosis 10⁻⁸ M): 29±2 x10⁴; % Reduktion der Anzahl Zellen [3, 9]: 95%

SMILES | EC50 [1] | IC50 [3] | Differenzierte Zellen (%) [1, 5] | Differenzierte Zellen (%) [1, 6] | Differenzierte Zellen (%) [1, 7] | Differenzierte Zellen (%) [1, 8] | Anzahl Zellen (x10⁴): Basalzellen ([2]; Dosis 10⁻¹⁰ M) | Anzahl Zellen (x10⁴): Gesamtanzahl ([2]; Dosis 10⁻¹⁰ M) | Anzahl Zellen (x10⁴): Plattenepithelzellen ([2]; Dosis 10⁻¹⁰ M) | Anzahl Zellen (x10⁴): verhornte Plattenepithelzellen ([2]; Dosis 10⁻¹⁰ M) | Anzahl Zellen (x10⁴): Basalzellen ([2]; Dosis 10⁻⁶ M) | Anzahl Zellen (x10⁴): Gesamtanzahl ([2]; Dosis 10⁻⁶ M) | Anzahl Zellen (x10⁴): Plattenepithelzellen ([2]; Dosis 10⁻⁶ M) | Anzahl Zellen (x10⁴): Basalzellen ([2]; Dosis 10⁻⁸ M) | Anzahl Zellen (x10⁴): Gesamtanzahl ([2]; Dosis 10⁻⁸ M) | Anzahl Zellen (x10⁴): Plattenepithelzellen ([2]; Dosis 10⁻⁸ M) | % Reduktion der Anzahl Zellen [3, 5] | % Reduktion der Anzahl Zellen [3, 6] | % Reduktion der Anzahl Zellen [3, 7] | % Reduktion der Anzahl Zellen [3, 8] | other results
C=C1/C(=C\C=C2/CCC[C@]3(C)[C@@H]([C@H](C)CCCC(C)(C)O)CC[C@@H]23)C[C@@H](O)C[C@@H]1O [Verbindung X, 1,25-Dihydroxychalecalciferol, reference compound] | 20 nM | 20 nM | 11% | 19% | 68% | 98% | 103±2 x10⁴ and 95±8 x10⁴ and 86±6 x10⁴ | 122±4 x10⁴ and 116±9 x10⁴ and 106±7 x10⁴ | 19±2 x10⁴ and 21±1 x10⁴ and 18±1 x10⁴ |  | 64±6 x10⁴ and 57±4 x10⁴ and 51±5 x10⁴ | 95±7 x10⁴ and 83±5 x10⁴ and 73±7 x10⁴ | 31±1 x10⁴ and 26±1 x10⁴ and 22±2 x10⁴ | 89±2 x10⁴ and 75±8 x10⁴ and 61±5 x10⁴ | 112±6 x10⁴ and 101±10 x10⁴ and 84±8 x10⁴ | 23±4 x10⁴ and 26±2 x10⁴ and 23±3 x10⁴ | 5% | 16% | 66% | 84% | Differenzierte Zellen (%) [1, 10]: 3%; % Reduktion der Anzahl Zellen [3, 10]: 6%
